Results on one compound are retold here after patent US20240174714A1, “TREATMENT OF SKIN DISORDERS” (priority 2021, published 2024).

Data set [1] relates to intracellular Leishmania donovani MHOM-ET-67/L82 amastigotes. Put plainly: In vitro antiprotozoal assay, intracellular amastigotes. The class given is cell-based. To be noted: intracellular amastigotes; read-out: L.don.InMac IC50.
Description: The testing of the inventive compounds against Leishmania donovani (strain MHOM/ET/67/L82) was performed in 96 well plates at concentrations in serial dilutions. Tests were done in triplicate.
Data set [2] can be described thus: Cytotoxicity assay (Alamar Blue) on L6-cells. As to conditions: rat. The class given is cell-based, rat. The protocol:
Tests were done in triplicate.
The plates were incubated for additional 2 h.
In general terms: The colour change of resazurin is a common sign of viable cells or microbes.

The subject of data set [3] is Leishmania mexicana (MNYC/BZ/62/m379). The experiment in a line: In vivo model of cutaneous leishmaniasis, rump back model in C67BLC/6 mice. To be noted: 20 μl 0.1% w/v in DMSO topically bid for 14 days. An excerpt: Mice. C67BLC/6 female mice were purchased from Envigo (Harlan laboratories) Indianapolis, IN, USA. 129SVE female mice were purchased from Taconic Farms, Cambridge City, IN, USA. All experimental mice were maintained at an OSU-ULAR facility in compliance with OSUIACUC.
Parasites and infection. L. mexicana (MNYC/BZ/62/m379) parasites were obtained and maintained as described previously. Promastigotes were maintained, passaged, and subsequently injected into experimental mice (5×10^6 parasites) subcutaneously into their shaven rumps. C67BLC/6 mice were infected with L. mexicana parasites for 6 weeks after which they developed lesions on their back rumps. Mice with similar lesion sizes were selected and randomized into control and treatment groups. From the beginning of treatment animals were housed individually.
Treatment. Treatment group received 20 μl of ZHAW6027 0.1% weight by volume in DMSO, twice a day (bid) for 14 days. […]
Topical drug treatments and lesion measurements. Lesion sizes were measured by using a small animal caliper twice weekly over the 14-day treatment duration and the area of the lesion was calculated by L×W, where L is the length and W is the width. […]
Quantitation of parasitic load. After 2 weeks of treatment animals were sacrificed, and the parasite load in the lesions was quantified. […] Viability of parasites was determined at 10 days of parasite culture. […]

The subject of data set [4] is Streptococcus agalactiae ATCC 12386. Put plainly: MIC broth microdilution, method 1. The class given is cell-based. As to conditions: CAMHB II, 5% LHB, 1 day at 36° C., 6027 acetate. For orientation: In broth dilution the organism is exposed to a series of concentrations in liquid medium.
Data set [5] concerns Streptococcus pyogenes ATCC 19615. The experiment in a line: MIC broth microdilution, method 1. The class given is cell-based. As to conditions: CAMHB II, 5% LHB, 1 day at 36° C., 6027 acetate.
In data set [6] the test system is Staphylococcus aureus ECL 2963646. The experiment in a line: microbe, parasite or virus in culture. Format: cell-based.
Data set [7] deals with Staphylococcus aureus NARSA NRS119. Put plainly: microbe, parasite or virus in culture. As to conditions: NARSA NRS119. Format: cell-based.
Data set [8] relates to Staphylococcus aureus NARSA NRS382. Put plainly: microbe, parasite or virus in culture. To be noted: NARSA NRS382. The class given is cell-based.
Data set [9] deals with Staphylococcus aureus NARSA NRS383. The experiment in a line: microbe, parasite or virus in culture. As to conditions: NARSA NRS383. Format: cell-based.
Data set [10] deals with S. aureus (USA300 MRSA, BAA-1556). The experiment in a line: S. aureus dermal infection model in ICR mice, CFU/skin. The class given is in vivo, Staphylococcus aureus. As to conditions: 25 hours post inoculation; topical BID at 1 and 7 h post infection, 20 μL/mouse; 6027 1% in DMSO, fusidic acid 2%. As for the experimental part:
Inoculum preparation. The testing strain, S. aureus USA300 MRSA (BAA-1556), was obtained from the frozen working stock and thawed at room temperature. A 0.2 mL aliquot was inoculated into 20 mL Brain-Heart Infusion broth (BHI) and then incubated at 35-37° C. with shaking (120 rpm) for 8 h. Bacterial cells in the 20 mL culture were pelleted by centrifugation at 3,500×g for 15 minutes and then re-suspended in 10 mL cold PBS (>8.0×10^9 CFU/mL, OD620 1.8-2.0). The culture was then diluted in PBS to the target inoculum of 1.0×10^7 CFU/mL. The actual bacterial counts were determined by plating dilutions onto nutrient agar (NA) plates followed by 20-24 h incubation and colony counting. The actual CFU counts were 1.04×10^7 CFU/mL.
S. aureus (USA300 MRSA, BAA-1556) dermal infection model. Groups of 5 female ICR mice weighing 24±2 g were used. Animals were anesthetized with etomidate-lipuro emulsion (20 mg/10 mL) at 20 mg/kg by intravenous (IV) injection, and then the fur on the back was removed by an electric shaver, and the epidermal layer was disrupted with an abrasive paper. Mice were inoculated topically (TOP) on the wound area with S. aureus (MRSA, BAA-1556) suspension, 5 μL/mouse. The target inoculation density was 5×10^4 CFU/mouse and the actual inoculum count 5.2×10^4 CFU/mouse. Animals were housed separately after infection. Compound 6027 in DMSO at 1% was administered topically (TOP) twice (BID) at 1 and 7 h post infection. Reference control agent, fusidic acid cream at 20 mg/gram (2%), was administered TOP BID at 1 and 7 h post infection. One infected and untreated group was sacrificed at 1 h after infection for the initial (baseline) bacterial counts. The dose volumes were 20 μL/mouse for all dosing groups.
Animals were sacrificed at 1 or 25 h after inoculation with CO2 asphyxiation. The infected skin samples of the wound infection (around 2 cm 2 areas) were excised and were homogenized in 1 mL PBS (pH 7.4) with a polytron homogenizer. A 0.1 mL aliquot of each homogenate was used for serial 10-fold dilutions and plated onto NA plates for bacterial enumeration. The bacterial counts (CFU/skin) in skin tissues were calculated and the percentage decrease in counts compared to the corresponding vehicle control (placebo) was calculated with the following formula: Decrease (%)=[(CFU/skin of placebo —CFU/skin of treatment)/(CFU/skin of placebo)]×100%.

Data set [11] has as its system Trichophyton mentagrophytes (ATCC 9533). The class given is cell-based. The protocol: (§1) Pre-formulated compound solution was diluted in 100% DMSO to prepare a 1.6 mg/mL working stock solution. […] Test concentration range was 0.032 to 32 μg/mL.
(§2) Vehicle-control and an active reference agent were used as blank and positive controls.

Data set [12] relates to Trichophyton rubrum (ATCC 10218). Format: cell-based. As for the experimental part:
as §1, §2

The test system of data set [13] is Clostridium difficile ATCC BAA-1805. To be noted: RCM, anaerobic, 2 days at 36° C., 6027 acetate.
Description: The antibacterial activity of inventive compounds was determined in duplicate in a Minimum Inhibitory Concentration (MIC) assay.
The antibacterial activity of 6027 acetate was measured using the in vitro broth microdilution assay under assay conditions described by the Clinical and Laboratory Standards Institute. […] Pre-formulated DMSO stock solution (26.67 mg/mL) was provided by sponsor. The 26.67 mg/mL stock solution was then diluted in DMSO to prepare a 6.4 mg/mL working stock solution. The 6.4 mg/mL working stock solution was diluted by 2-fold serial titrations in DMSO, for a total of 11 test concentrations. A 4 μl aliquot of each dilution was added to 196 of broth medium seeded with the organism suspension in wells of a 96 well plate (bacterial count: 2 −8×10^5 colony forming units/mL final). The final volume was 200 μl in each well and the final DMSO concentration was 2 percent. Test concentrations were 128 to 0.125 μg/mL.
Following incubation, the plates were visually examined, and wells were scored for growth or complete growth inhibition to define the minimum inhibitory concentration. […] Vehicle-control and Vancomycin or Linezolid, as depicted at Table 8, were used as blank and positive controls, respectively.
A short description of the next data set: physchem. To be noted: octanol/water.

Square brackets hold non-standard residues; d marks the D form. Peptide text beside a SMILES is read from it. * marks the point of attachment. NH(1-CH2NMe2-cBu) = CN(C)CC1(N*)CCC1; Benzoyl(4-F) = O=C(c1ccc(F)cc1)*; hCha = N[C@@H](CCC1CCCCC1)C(=O)O; Aib = CC(C)(N)C(=O)O; βAla = NCCC(=O)O

A word on the IC50: it is the midpoint of a concentration-inhibition curve. The logD is lipophilicity at a set pH, counting ionised and neutral species. Lower therefore signals lower lipophilicity. With `CC(C)C[C@H](NC(=O)[C@H](CCC1CCCCC1)NC(=O)[C@@H]1CCCN1C(=O)c1ccc(F)cc1)C(=O)NC(C)(C)C(=O)N[C@@H](CC(C)C)C(=O)N[C@@H](CC(C)C)C(=O)NC(C)(C)C(=O)NC(C)(C)C(=O)NCCC(=O)NC1(CN(C)C)CCC1` [Compound 6027, (2S)-2-[(2S)-4-cyclohexyl-2-{[(2S)-1-(4-fluorobenzoyl)pyrrolidin-2-yl]formamido}butanamido]-N-(1-{[(1S)-1-{[(1S)-1-({1-[(1-{[2-({1-[(dimethylamino)methyl]cyclobutyl}carbamoyl)ethyl]carbamoyl}-1-methylethyl)carbamoyl]-1-methylethyl}carbamoyl)-3-methylbutyl]carbamoyl}-3-methylbutyl]carbamoyl}-1-methylethyl)-4-methylpentanamide] ({Benzoyl(4-F)}-P[hCha]L[Aib]LL[Aib][Aib][βAla]-{NH(1-CH2NMe2-cBu)}), the IC50 in data set [1] was 54.2 nM. The IC50 at 68 h in data set [2] was 1340 nM. The “reduction of parasite loads in lesions compared to the control” value in data set [3] (limiting dilution assay, FIG. 2) was “about 3 orders of magnitude”. The “volume of the induced CL lesions over time” value in [3] (vs vehicle (DMSO), where lesions increased, FIG. 1) is “gradually reduced”. Moreover, the “MIC of 6027” value in [4] stood at 1 µg/mL; in data set [5], 4 µg/mL; in [6], 2 µg/mL; in data set [7], 2 µg/mL; in data set [8] it was 1 µg/mL; in [9], 2 µg/mL. The “MIC of 6027” value in [13] was determined as 0.25 µg/mL. Further, the “Decrease (%) in CFU/skin vs vehicle control” value in data set [10] is on record as 71%. Further, in data set [10], the “LogCFU/skin after 25 hours (Standard error of the mean − SEM)” value was 6.50 (0.16) LogCFU/skin. The “T. mentagrophytes (ATCC 9533) MIC” value in data set [11] was 16 µg/mL. The “T. rubrum (ATCC 10218) MIC” value in data set [12] was 32 µg/mL. This compound also came in with a logD in “physchem” of 4.56.
